# Literature values, collected in patent US20060193883A1, “Pesticidal treatment materials” (priority 1999, published 2006).
# System: house dust mite populations
# Conditions: in vivo
smiles,measurement,value
CC1(C)[C@H](C(=O)O[C@H](C#N)c2cccc(Oc3ccccc3)c2)[C@@H]1C=C(Br)Br [deltamethrin],effectiveness as long-term acaricides against house dust mite populations,highly effective
CC1(C)C(C=C(Cl)Cl)C1C(=O)OCc1cccc(Oc2ccccc2)c1 (centres unmarked) [permethrin],effectiveness as long-term acaricides against house dust mite populations,highly effective
